According to ChEMBL document CHEMBL1146520, “Sterol and triterpenoid constituents of Verbena littoralis with NGF-potentiating activity” (J Nat Prod, 2003):
Calls of active or inactive are those of the source. The calls are words filed in the database; no cut-off is given here.

Legend:
Assay type in all cases: functional, cell-based
PC-12 [1] = assay: Enhancement of nerve growth factor-stimulated neurite outgrowth in rat PC12D cells at 3 to 10 uM
PC-12 [2] = assay: Enhancement of neurite outgrowth in rat PC12D cells up to 30 uM in absence of nerve growth factor
PC-12 [3] = assay: Enhancement of nerve growth factor-stimulated neurite outgrowth in rat PC12D cells at 1 to 3 uM

Row | SMILES | Activity (PC-12 [1]) | Activity (PC-12 [2]) | Activity (PC-12 [3])
1 | CC[C@H](C[C@@H](O)[C@@H](C)[C@H]1CC[C@H]2[C@@H]3[C@H](O)C=C4C[C@@H](O)CC[C@]4(C)[C@H]3CC[C@]12C)C(C)C | Active | inactive | –
2 | CC[C@H](C[C@@H](O)[C@@H](C)[C@H]1CC[C@H]2[C@@H]3[C@H](O)C=C4[C@@H](O)[C@@H](O)CC[C@]4(C)[C@H]3CC[C@]12C)C(C)C | – | inactive | –
3 | CC1(C)CC[C@]2(C(=O)O)CC[C@]3(C)C(=CC[C@@H]4[C@@]5(C)CC[C@H](O)C(C)(C)[C@@H]5CC[C@]43C)[C@@H]2C1 | Active | inactive | –
4 | C[C@H]1[C@H](C)CC[C@]2(C(=O)O)CC[C@]3(C)C(=CC[C@@H]4[C@@]5(C)CC[C@H](O)C(C)(C)[C@@H]5CC[C@]43C)[C@H]12 | – | inactive | Active
